In PubChem BioAssay (NCI):
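Each compound was tested at five concentrations against cells in 96-well plates for 48 hours. Definition used: TGI = concentration required for complete inhibition of growth.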

How the values were obtained:
Test in all cases: NCI anticancer screen, dose series, 48 h
[1] = system: BT-549 breast
[2] = system: HS 578T breast
[3] = system: MDA-MB-231 breast
[4] = system: SK-MEL-2 melanoma
[5] = system: SW-620 colon
[6] = system: SF-268 CNS
[7] = system: NCI-H522 lung
[8] = system: OVCAR-4 ovarian
[9] = system: NCI-H23 lung
[10] = system: K-562 leukemia
[11] = system: KM12 colon
[12] = system: NCI/ADR-RES ovarian
[13] = system: PC-3 prostate
[14] = system: A498 renal
[15] = system: SNB-19 CNS
[16] = system: IGROV1 ovarian
[17] = system: ACHN renal
[18] = system: SR leukemia
[19] = system: EKVX NSCLC
[20] = system: SF-539 CNS

SMILES | TGI [1] [µM] | TGI [2] [µM] | TGI [3] [µM] | TGI [4] [µM] | TGI [5] [µM] | TGI [6] [µM] | TGI [7] [µM] | TGI [8] [µM] | TGI [9] [µM] | TGI [10] [µM] | TGI [11] [µM] | TGI [12] [µM] | TGI [13] [µM] | TGI [14] [µM] | TGI [15] [µM] | TGI [16] [µM] | TGI [17] [µM] | TGI [18] [µM] | TGI [19] [µM] | TGI [20] [µM]
Cc1nc(Cl)c2sc(=S)n(-c3ccc(F)cc3)c2n1 | 12.1 | 6.24 | 20.7 | 25.4 | 14.1 | 5.29 | 10.9 | 31.4 | 2.52 | > 100 | 25.3 | 25.5 | 36.8 | 7.23 | 5.06 | 3.53 | 26.8 | 2.99 | 32.9 | 
Oc1ccc(Cl)cc1-c1[nH]c(=S)nc(-c2ccccc2)c1Cl | > 100 | > 100 | 97.2 | > 100 | > 100 | > 100 | > 31.6 | > 100 | > 100 | > 100 | > 100 | > 100 | > 100 | > 100 | > 100 | > 100 | > 100 | > 100 |  | 
COc1cc(O)c2c(=O)c(OC)c(-c3ccc4c(c3)OCO4)oc2c1 | > 30 | > 100 | > 77.4 | > 100 | > 100 | 40 | > 100 |  | > 100 | > 100 | > 100 | > 100 | > 100 | > 89.3 | > 84.1 | > 100 | > 100 | > 100 | > 100 | > 74.9
COc1ccc(N)c(C(O)CCNC(C)=O)c1 (centres undefined) | > 100 | > 100 | > 100 | > 100 | > 100 | > 100 | > 100 | > 100 | > 100 |  | > 100 | > 100 | > 100 | > 100 | > 100 | > 100 | > 100 | > 100 | > 100 | > 100
C[C@@]12c3c4ccc(C=O)c3Oc3ccc(C=O)c(c31)Oc1c(C=O)ccc(c12)O4 | > 100 | > 100 | > 100 | > 100 | > 100 | > 100 |  | > 100 | > 100 | > 100 | > 100 | > 100 | > 100 | > 100 | > 100 | > 100 | > 100 | > 100 | > 100 | > 100
Cc1c(/C=N/NC(=S)Nc2cccc(Cl)c2)c(=O)n(-c2ccccc2)n1C | 75.1 | 33.6 | 43.8 | 36.7 | > 100 | 36.7 |  | 40 | 82.3 | 31.5 | > 100 | 33.8 | > 100 | 19.9 | 37.1 | 42.4 | 37.5 | > 100 | 33.3 | 33
O=C(c1ccco1)C1CC(c2ccc3ccccc3c2O)=NN1 (centres undefined) | > 100 | > 100 | > 100 | > 100 | > 100 | > 100 | > 100 | > 100 | > 100 | > 100 | > 100 | > 100 | > 100 | > 100 |  | > 100 | > 100 | > 100 |  | > 100
CCC(CC)C(=O)OC[n+]1ccc(-c2c(COC(=O)NC(C)C)c(COC(=O)NC(C)C)c3n2CCC3)cc1 | > 100 | > 100 | > 100 |  | > 100 |  | > 100 | > 100 | > 100 | > 100 |  | > 100 | > 100 | > 100 | > 100 | > 100 |  | > 100 | > 100 | > 100
O=S(=O)(C(=Ic1ccccc1)S(=O)(=O)C(F)(F)C(F)(F)C(F)(F)C(F)(F)F)C(F)(F)C(F)(F)C(F)(F)C(F)(F)F | 28.5 | 56.9 | 55.4 |  | 20.5 | 42.7 | 6.09 | 14.7 | 39.7 | 16.4 | 41.7 | 59.8 | 31.6 | 28.6 | 28.5 | 36.9 | 19.3 | 21.9 | 37.1 | 28.8
O=C(O)CN=C(C(=NCC(=O)O)c1ccccc1)c1ccccc1 | > 100 | > 100 | > 100 | > 100 | > 100 | > 100 | > 100 | > 100 | > 100 | > 100 | > 100 | > 100 | > 100 | > 100 | > 100 |  | > 100 | > 100 | > 100 | 
